Experimental data: publication PMC9673804, “Design, synthesis and antitumor evaluation of novel pyrazolo[3,4-d]pyrimidines incorporating different amino acid conjugates as potential DHFR inhibitors” (Journal of Enzyme Inhibition and Medicinal Chemistry, 2022)
“And” between values parts separate entries of the source, which are not always exact repeats. Equal values may be shown once.

What was measured:
[1] = tested on: cervical carcinoma (HeLa); assay: SRB cytotoxicity assay, HeLa; assay type: cell-based; details: Homo sapiens, HeLa cells
[2] = tested on: colorectal carcinoma (HCT-116); assay: SRB cytotoxicity assay, HCT-116; assay type: cell-based; details: Homo sapiens, HCT-116 cells
Procedure: (§1) The SRB colorimetric assay was employed to assess the synthesized compounds’ cytotoxic effects on several cancer cell lines (Table 1)[11–14]. […] Furthermore, the effect of tested compounds was evaluated on the normal immortalized HPDE cell line.
(§2) Sulforhodamine B (SRB) assay was employed to assay in-vitro antitumor activities of all the synthesised compounds as describer previously. […] The cell lines were obtained from the American Type Culture Collection (Rockville, USA).

[3] = tested on: human prostate cancer (PC-3); assay: SRB cytotoxicity assay, PC-3; assay type: cell-based; details: PC-3 cells
Procedure: as §1, §2

[4] = tested on: human hepatocellular carcinoma (HepG-2); assay: SRB cytotoxicity assay, HepG-2; assay type: cell-based; details: HepG2, HepG-2 cells
Procedure: as §1, §2

[5] = tested on: mammary gland breast cancer (MCF-7); assay: SRB cytotoxicity assay, MCF-7; assay type: cell-based; details: Homo sapiens, MCF7, MCF-7 cells
Procedure: as §1, §2

[6] = tested on: pancreatic human cancer cell lines (BxPC-3); assay: SRB cytotoxicity assay, BxPC-3; assay type: cell-based; details: BxPC-3 cells
Procedure: as §1, §2

[7] = tested on: normal immortalised pancreatic cell line (HPDE); assay: SRB cytotoxicity assay, normal HPDE cells; assay type: cell-based; details: normal immortalized HPDE cell line
Procedure: as §1, §2

human DHFR enzyme = target: T1, human DHFR enzyme (Homo sapiens, UniProt P00374); assay: Elisa assay of human DHFR enzyme; assay type: biochemical; details: for IC50: DHFR ELISA kit, triplicate; for inhibition at 0.1 µM: conc 0.1 uM; for inhibition at 1 µM: conc 1 uM; for inhibition at 10 µM: conc 10 uM; for inhibition at 100 µM: conc 100 uM
T1 construct: purchased MyBioSource MBS9312476
T1 sequence (P00374 1-187): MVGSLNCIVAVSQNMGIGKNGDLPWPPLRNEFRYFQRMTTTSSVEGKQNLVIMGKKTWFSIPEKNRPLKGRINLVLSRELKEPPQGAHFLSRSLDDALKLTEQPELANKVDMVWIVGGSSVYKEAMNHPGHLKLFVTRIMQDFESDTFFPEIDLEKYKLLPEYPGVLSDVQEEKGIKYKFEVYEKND
Procedure: Enzyme-linked immunosorbent assay (ELISA) assay technique was used to evaluate the anti-DHFR effects of all the synthesised compounds on as described previously. The DHFR ELISA kit (MyBioSource, MBS9312476 San Diego, CA, USA) was used according to the manufacturer instructions. […] The test was repeated in triplicate, and the significance was assessed by one-way ANOVA test followed by Tukey’s posttest, where p < 0.05 was considered significance.

IC50 (human DHFR enzyme) | inhibition at 0.1 µM (human DHFR enzyme) [%] | inhibition at 1 µM (human DHFR enzyme) [%] | inhibition at 10 µM (human DHFR enzyme) [%] | inhibition at 100 µM (human DHFR enzyme) [%] | Structure (SMILES) | IC50 [1] [µM] | IC50 [2] [µM] | IC50 [3] [µM] | IC50 [4] [µM] | IC50 [5] [µM] | IC50 [6] [µM] | IC50 [7] [µM]
7.99 ± 0.16 µM | 17 | 29 | 61 | 89 | O=C(c1ccc(Nc2ncnc3c2cnn3-c2ccccc2)cc1)n1nnc2ccccc21 [Compound 6, {1H-benzo[d][1,2,3]triazol-1-yl}{4-[(1-phenyl-1H-pyrazolo-[3,4-d]pyrimidin-4-yl)-amino]phenyl}-methanone] | 15.1 ± 1.21 | 17.3 ± 2.18 | 14.9 ± 1.24 | 13 ± 1.86 | 11.9 ± 1.1 | 14.2 ± 1.36 | > 50
13.3 ± 0.24 µM | 12 | 30 | 57 | 81 | O=C(O)CNC(=O)c1ccc(Nc2ncnc3c2cnn3-c2ccccc2)cc1 [Compound 7a, 2-{4-[(1-Phenyl-1H-pyrazolo[3,4-d]pyrimidin-4-yl)amino]benzamido}acetic acid] | 19.4 ± 1.21 | 28.2 ± 1.93 | 23 ± 1.03 | 15.5 ± 0.96 | 15.3 ± 1.29 | 19.4 ± 1.56 | > 50
42.5 ± 0.78 µM | 6.4 | 20 | 38 | 72 | CC(NC(=O)c1ccc(Nc2ncnc3c2cnn3-c2ccccc2)cc1)C(=O)O (stereo not drawn) [Compound 7b, 2-{4-[(1-Phenyl-1H-pyrazolo[3,4-d]pyrimidin-4-yl)amino]benzamido}propanoic acid] | 29.2 ± 1.9 | 29.6 ± 1.91 | 34.2 ± 2.61 | 19.2 ± 1.87 | 35.7 ± 2.09 | 31.2 ± 2.8 | > 50
< 1 µM and ~0.61 µM and 0.61 µM | 39 | 65 | 80 | 94 | CC(C)C(NC(=O)c1ccc(Nc2ncnc3c2cnn3-c2ccccc2)cc1)C(=O)O (stereo not drawn) [Compound 7c, 3-Methyl-2-{4-[(1-phenyl-1H-pyrazolo[3,4-d]pyrimidin-4-yl)amino]benzamido}butanoic acid] | 9.39 ± 0.25 | 10.6 ± 1.1 | 11.2 ± 0.34 | 12.2 ± 1.14 | 6.56 ± 0.18 | 10.2 ± 1.01 | > 50
< 1 µM and 0.43 µM | 42 | 66 | 85 | 95 | CCC(C)C(NC(=O)c1ccc(Nc2ncnc3c2cnn3-c2ccccc2)cc1)C(=O)O (stereo not drawn) [Compound 7d, 3-Methyl-2-{4-[(1-phenyl-1H-pyrazolo[3,4-d]pyrimidin-4-yl)amino]benzamido}pentanoic acid] | 8.09 ± 0.51 | 10.1 ± 1.01 | 9.99 ± 0.81 | 9.09 ± 0.71 | 5.51 ± 0.28 | 11.2 ± 0.41 | > 50
1.83 ± 0.04 µM | 28 | 57 | 72 | 89 | O=C(O)CCC(NC(=O)c1ccc(Nc2ncnc3c2cnn3-c2ccccc2)cc1)C(=O)O (stereo not drawn) [Compound 7e, 2-{4-[(1-Phenyl-1H-pyrazolo[3,4-d]pyrimidin-4-yl)amino]benzamido}pentanedioic acid] | 13.1 ± 1.01 | 15.3 ± 1.18 | 13.8 ± 1.14 | 16 ± 0.8 | 11.9 ± 1.1 | 15.2 ± 1.15 | > 50
1.28 ± 0.03 µM | 37 | 55 | 70 | 84 | O=C(NC(CS)C(=O)O)c1ccc(Nc2ncnc3c2cnn3-c2ccccc2)cc1 (stereo not drawn) [Compound 7g, 3-Mercapto-2-{4-[(1-phenyl-1H-pyrazolo[3,4-d]pyrimidin-4-yl)amino]benzamido}propanoic acid] | 12.3 ± 1.2 | 12.2 ± 1.2 | 13.2 ± 1.52 | 10.2 ± 0.92 | 10.8 ± 1.1 | 15.2 ± 0.22 | > 50
8.47 ± 0.18 µM | 21 | 36 | 54 | 81 | CSCCC(NC(=O)c1ccc(Nc2ncnc3c2cnn3-c2ccccc2)cc1)C(=O)O (stereo not drawn) [Compound 7h, 4-(Methylthio)-2-{4-[(1-phenyl-1H-pyrazolo[3,4-d]pyrimidin-4-yl)amino]benzamido}butanoic acid] | 18 ± 1.2 | 19.3 ± 0.85 | 17 ± 2.02 | 17 ± 0.92 | 20 ± 2.01 | 17.9 ± 1.03 | > 50
< 1 µM and 0.82 µM | 35 | 63 | 80 | 94 | O=C(NC(Cc1c[nH]cn1)C(=O)O)c1ccc(Nc2ncnc3c2cnn3-c2ccccc2)cc1 (stereo not drawn) [Compound 7i, 3-(1h-Imidazol-4-yl)-2-{4-[(1-phenyl-1H-pyrazolo[3,4-d]pyrimidin-4-yl)amino]benzamido}-propanoic acid] | 10.9 ± 1.99 | 13 ± 1.01 | 12.8 ± 2.01 | 9.26 ± 1.56 | 13.2 ± 1.21 | 10.5 ± 3.01 | > 50
< 1 µM and 0.54 µM | 41 | 64 | 80 | 93 | O=C(O)C1CCCN1C(=O)c1ccc(Nc2ncnc3c2cnn3-c2ccccc2)cc1 (stereo not drawn) [Compound 7j, 1-{4-[(1-Phenyl-1H-pyrazolo[3,4-d]pyrimidin-4-yl)amino]benzoyl}pyrrolidine-2-carboxylic acid] | 9.29 ± 0.2 | 8.1 ± 0.2 | 11.2 ± 0.7 | 10.3 ± 1.2 | 8.19 ± 1.2 | 6.19 ± 0.43 | > 50
7 ± 0.17 µM | 21 | 37 | 60 | 77 | O=C(NC(Cc1c[nH]c2ccccc12)C(=O)O)c1ccc(Nc2ncnc3c2cnn3-c2ccccc2)cc1 (stereo not drawn) [Compound 7k, 3-(1h-Indol-3-yl)-2-{4-[(1-phenyl-1H-pyrazolo[3,4-d]pyrimidin-4-yl)amino]benzamido}propanoic acid] | 19.5 ± 1.1 | 18 ± 1.23 | 19.9 ± 1.35 | 25.54 ± 0.14 | 28.9 ± 1.91 | 19.1 ± 1.23 | > 50
< 1 µM and ~0.66 µM and 0.66 µM | 34 | 68 | 81 | 92 | O=C(NC(Cc1ccccc1)C(=O)O)c1ccc(Nc2ncnc3c2cnn3-c2ccccc2)cc1 (stereo not drawn) [Compound 7l, 3-Phenyl-2-{4-[(1-phenyl-1H-pyrazolo[3,4-d]pyrimidin-4-yl)amino]benzamido}propanoic acid] | 9.05 ± 1.2 | 13 ± 0.89 | 10.1 ± 0.9 | 13.2 ± 1.29 | 10.7 ± 1.09 | 11.5 ± 0.76 | > 50
1.34 ± 0.03 µM | 36 | 52 | 73 | 86 | O=C(NC(Cc1ccc(O)cc1)C(=O)O)c1ccc(Nc2ncnc3c2cnn3-c2ccccc2)cc1 (stereo not drawn) [Compound 7m, 3-(4-Hydroxyphenyl)-2-{4-[(1-phenyl-1H-pyrazolo[3,4-d]pyrimidin-4-yl)amino]benzamido}-propanoic acid] | 11.8 ± 1.13 | 13.3 ± 2.21 | 12.7 ± 1.87 | 14.2 ± 0.98 | 11.3 ± 1.28 | 12 ± 1.14 | > 50
– | – | – | – | – | COc1cccc2c1C(=O)c1c(O)c3c(c(O)c1C2=O)C[C@@](O)(C(=O)CO)C[C@@H]3O[C@H]1C[C@H](N)[C@H](O)[C@H](C)O1 [Doxorubicin, reference compound] | – | – | 9.01 ± 0.09 | 4.6 ± 0.44 | 4.25 ± 0.15 | 7.23 ± 0.1 | > 50
– | – | – | – | – | CN(Cc1cnc2nc(N)nc(N)c2n1)c1ccc(C(=O)N[C@@H](CCC(=O)O)C(=O)O)cc1 [Methotrexate, methotrexate, reference compound] | 294.8 ± 0.51 | 99.98 ± 0.22 | 42.3 ± 7.25 | 800.24 ± 0.16 | 66.11 ± 0.15 | 29.1 ± 0.31 | > 50
